Measured values reported in patent US9422311B2, “Compounds for the treatment of hepatitis C” (priority 2012, dated 2016).
Read-outs that look alike come from different tables or passages of the source.

Tested on: HCV pseudoparticles, genotype 1a (H77C) E1 and E2 envelope
Experiment: HCV pseudoparticle infection assay (luciferase, Huh7 cells)
Format: cell-based, hepatitis C virus (HCV) genotype 1a
Conditions: Hepatitis C virus, Huh-7, 48 h, read-out: EC50 (nM) 1a (H77C), HCV pseudoparticles genotype 1a (H77C), Huh7 cells, luciferase 2 days after infection

| SMILES | EC50 (class symbol) [nM] | EC50 (numeric value) [nM] |
| --- | --- | --- |
| C=C1COc2ccc(cc2)CNc2nc(nc(OCC(F)(F)F)n2)Nc2ccc(cc2)C(=O)NCC(C)(C)CN(C(=O)C(=O)OCC)C1 [Example 1001] | 0.1 to 100 | 0.629 |
| C=C1COc2ccc(cc2)CNc2nc(nc(OCC(F)(F)F)n2)Nc2ccc(cc2)C(=O)NCC(C)(C)CN(C(=O)C(=O)O)C1 [Example 1002] | 0.1 to 100 | 5.73 |
| C=C1COc2ccc(cc2)CNc2nc(nc(OCC(F)(F)F)n2)Nc2ccc(cc2)C(=O)NCC(C)(C)CN(C(=O)C(=O)NCC2CC2)C1 [Example 1003] | 0.1 to 100 |  |
| C=C1COc2ccc(cc2)CNc2nc(nc(OCC(F)(F)F)n2)Nc2ccc(cc2)C(=O)NCC(C)(C)CN(C(=O)C(=O)Nc2ccc(F)cc2)C1 [Example 1004] | 0.1 to 100 |  |
| CC1(C)CNC(=O)c2ccc(nc2)Nc2cc(nc(OCC(F)(F)F)n2)NCc2ccc(cc2)OCCCN(C(=O)C(=O)Nc2ccc(Cl)c(F)c2)C1 [Example 2003] | 0.1 to 100 | 0.105 |
| CC1(C)CNC(=O)c2ccc(nc2)Nc2cc(nc(OCC(F)(F)F)n2)NCc2ccc(cc2)OCCCN(C(=O)C(=O)Nc2ccc(C#N)cc2)C1 [Example 2004] | 0.1 to 100 |  |
| CN(C)C(=O)C(=O)N1CCCOc2ccc(cc2Cl)CNc2nc(nc(OCC(F)(F)F)n2)Nc2ccc(cc2)C(=O)NCC(C)(C)C1 [Example 3001] | 0.1 to 100 |  |
| CC1(C)CNC(=O)c2ccc(cc2)Nc2nc(nc(OCC(F)(F)F)n2)NCc2ccc(c(Cl)c2)OCCCN(C(=O)C(N)=O)C1 [Example 3002] | 0.1 to 100 |  |
| Cc1ccc(NC(=O)C(=O)N2CCCOc3ccc(cc3Cl)CNc3nc(nc(OCC(F)(F)F)n3)Nc3ccc(cc3)C(=O)NCC(C)(C)C2)cc1 [Example 3003] | 0.1 to 100 |  |
| CC1(C)CNC(=O)c2ccc(cc2)Nc2nc(nc(OCC(F)(F)F)n2)NCc2ccc(c(Cl)c2)OCCCN(C(=O)C(=O)N2CCOCC2)C1 [Example 3005] | 0.1 to 100 |  |
| CC1(C)CNC(=O)c2ccc(cc2)Nc2nc(nc(OCC(F)(F)F)n2)NCc2ccc(c(Cl)c2)OCCCN(C(=O)C(=O)Nc2nncs2)C1 [Example 3006] | 0.1 to 100 |  |
| CC1(C)CNC(=O)c2ccc(cc2)Nc2nc(nc(OCC(F)(F)F)n2)NCc2ccc(c(Cl)c2)OCCCN(C(=O)C(=O)Nc2cccc(F)c2)C1 [Example 3007] | 0.1 to 100 |  |
| CC1(C)CNC(=O)c2ccc(cc2)Nc2nc(nc(OCC(F)(F)F)n2)NCc2ccc(c(Cl)c2)OCCCN(C(=O)C(=O)Nc2ccc(F)cc2)C1 [Example 3008] | 0.1 to 100 | 2.42 |
| CC1(C)CNC(=O)c2ccc(cc2)Nc2nc(nc(OCC(F)(F)F)n2)NCc2ccc(c(Cl)c2)OCCCN(C(=O)C(=O)Nc2ccccc2)C1 [Example 3009] | 0.1 to 100 |  |
| CC1(C)CNC(=O)c2ccc(cc2)Nc2nc(nc(OCC(F)(F)F)n2)NCc2ccc(c(Cl)c2)OCCCN(C(=O)C(=O)Nc2cc(F)cc(F)c2)C1 [Example 3010] | 0.1 to 100 |  |
| CC1(C)CNC(=O)c2ccc(cc2)Nc2nc(nc(OCC(F)(F)F)n2)NCc2ccc(c(Cl)c2)OCCCN(C(=O)C(=O)NC2CCCCC2)C1 [Example 3012] | 0.1 to 100 |  |
| CC1(C)CNC(=O)c2ccc(cc2)Nc2nc(nc(OCC(F)(F)F)n2)NCc2ccc(c(Cl)c2)OCCCN(C(=O)C(=O)N2CCc3ccccc3C2)C1 [Example 3013] | 0.1 to 100 |  |
| CC(C)CNC(=O)C(=O)N1CCCOc2ccc(cc2Cl)CNc2nc(nc(OCC(F)(F)F)n2)Nc2ccc(cc2)C(=O)NCC(C)(C)C1 [Example 3014] | 0.1 to 100 |  |
| CNC(=O)C(=O)N1CCCOc2ccc(cc2Cl)CNc2nc(nc(OCC(F)(F)F)n2)Nc2ccc(cc2)C(=O)NCC(C)(C)C1 [Example 3015] | 0.1 to 100 |  |
| CCc1nnc(NC(=O)C(=O)N2CCCOc3ccc(cc3Cl)CNc3nc(nc(OCC(F)(F)F)n3)Nc3ccc(cc3)C(=O)NCC(C)(C)C2)s1 [Example 3016] | 0.1 to 100 | 24 |
| Cc1cc(NC(=O)C(=O)N2CCCOc3ccc(cc3Cl)CNc3nc(nc(OCC(F)(F)F)n3)Nc3ccc(cc3)C(=O)NCC(C)(C)C2)no1 [Example 3017] | 0.1 to 100 |  |
| CC1(C)CNC(=O)c2ccc(cc2)Nc2nc(nc(OCC(F)(F)F)n2)NCc2ccc(c(Cl)c2)OCCCN(C(=O)C(=O)N2CCCCC2)C1 [Example 3018] | 0.1 to 100 |  |
| CC1(C)CNC(=O)c2ccc(cc2)Nc2nc(nc(OCC(F)(F)F)n2)NCc2ccc(c(Cl)c2)OCCCN(C(=O)C(=O)Nc2nccs2)C1 [Example 3019] | 0.1 to 100 |  |
| Cc1nnc(NC(=O)C(=O)N2CCCOc3ccc(cc3Cl)CNc3nc(nc(OCC(F)(F)F)n3)Nc3ccc(cc3)C(=O)NCC(C)(C)C2)s1 [Example 3020] | 0.1 to 100 |  |
